Experimental findings from ChEMBL document CHEMBL1201862, “PubChem BioAssay data set” (2004) are described below.

Some test systems named below: DLD-1; HOP-18; KM-20L2; SNB-78; M19-MEL; LXFL 529; DMS-273; XF498; RXF 631.
What all share (test): DTP human tumour cell line panel, 48 h

The structures appear in SMILES notation. Structures can show the parent of a compound that is named as a salt.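 These data come from cells grown in 96-well plates and exposed to compound for 48 hours at five concentrations. The concentration for 50% growth inhibition is given as GI50.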 The source made the active and inactive calls. No stated cut-off is given here; in the data, active = GI50 up to about 1.1 µM and inactive = higher.

As to `CC1(C)NC(=O)N(CCCCCCN2C(=O)NC(C)(C)C2=O)C1=O`, the GI50 in the test with DLD-1, with HOP-18, with KM-20L2, in the test on SNB-78, with M19-MEL and in the test with LXFL 529 was > 100 µM (inactive) throughout. Moreover, the GI50 in the test on DMS-273 was > 100 µM (inactive).
Turning to `NCCSSCCN` [CYSTAMINE HYDROCHLORIDE], the GI50 with DLD-1, in the test with HOP-18, in the test with KM-20L2, with XF498, in the test with SNB-78 and in the test with M19-MEL was > 100 µM (inactive) throughout. The GI50 in the test on LXFL 529, in the test on RXF 631 and in the test with DMS-273 was > 100 µM (inactive) in each case.
With `Brc1ccc(-c2nnc(-c3nn(-c4ccccc4)c4nc5ccccc5nc34)o2)cc1`, the GI50 with DLD-1 was > 100 µM (inactive); in the test with HOP-18, > 100 µM (inactive); with KM-20L2, > 100 µM (inactive); in the test with SNB-78 it was > 100 µM (inactive); with LXFL 529, 31.5 µM (inactive); in the test on RXF 631, > 100 µM (inactive). Moreover, the GI50 in the test on DMS-273 is 81.3 µM (inactive).
On to `CCCCCCCCCCCCCC(=O)OC(/C=C/C(C)C)C(O)C(O)C(OC)C(=O)NC1CCCCN(C)C1=O` (configuration not stated), for which the GI50 in the test on DLD-1 was 1.56 µM (inactive); in the test on HOP-18, 3.54 µM (inactive); in the test on KM-20L2 it was 2.94 µM (inactive); in the test on SNB-78 it was 4.8 µM (inactive); with M19-MEL, 3.48 µM (inactive); with LXFL 529 it was 2.97 µM (inactive). The results for the GI50 with RXF 631 and in the test on DMS-273 were 1.18 µM (inactive) and 0.817 µM (active), respectively.
For `CCCCCCCCCC1CC(=O)Oc2cccc(O)c21` (configuration not stated), the GI50 in the test with DLD-1 is 27.9 µM (inactive); with HOP-18, 51.4 µM (inactive); in the test on KM-20L2, 31.3 µM (inactive); in the test on XF498 it was 21.6 µM (inactive); with SNB-78 it was 42 µM (inactive); in the test with M19-MEL, 31.3 µM (inactive). For the same compound, the GI50 was 24.4 µM (inactive) in the test with LXFL 529, 0.617 µM (active) in the test with RXF 631 and 4.03 µM (inactive) with DMS-273.
For `CCOC(=O)C1Cc2ccc3c4c(ccc(c24)C1)CC(C(=O)OCC)C3`, the GI50 with DLD-1, in the test with HOP-18, in the test with KM-20L2, with XF498, in the test on SNB-78 and in the test on M19-MEL was > 100 µM (inactive) each time. Further, in the test with DMS-273, the GI50 was > 100 µM (inactive).
Take `Clc1ccc2c(c1)C1C(CO2)C(c2ccccc2)=NN1c1ccccc1` (configuration not stated): the GI50 in the test on DLD-1 is 35.1 µM (inactive); in the test with HOP-18 it was 1.07 µM (active); with KM-20L2, 79.6 µM (inactive); in the test on XF498 it was 14.9 µM (inactive); with SNB-78, 29.9 µM (inactive); with M19-MEL, 26.5 µM (inactive). Moreover, the GI50 was 29.6 µM (inactive) in the test on LXFL 529 and 28.7 µM (inactive) in the test with DMS-273.
For `CN1/C(=N\c2ccccc2)S/C1=N/c1ccccc1`, the GI50 was 23.4 µM (inactive) in the test on DLD-1; 69 µM (inactive) in the test on HOP-18; 9.57 µM (inactive) in the test on XF498; > 100 µM (inactive) in the test on SNB-78; 21.8 µM (inactive) with M19-MEL; 82.2 µM (inactive) in the test on LXFL 529. The GI50 in the test with DMS-273 is 87.3 µM (inactive).
On to `CCOC(=O)C1(C)CCC(C(=O)OC)C1=O` (configuration not stated), for which the GI50 in the test with DLD-1 is 57.4 µM (inactive); in the test on HOP-18 it was > 100 µM (inactive); with KM-20L2 it was > 100 µM (inactive); with XF498 it was > 100 µM (inactive); in the test on SNB-78 it was > 100 µM (inactive); in the test with M19-MEL, 73.3 µM (inactive). Also, the GI50 in the test with LXFL 529 was > 100 µM (inactive).
Consider `O=[N+]([O-])c1cc(Cl)ccc1S(=O)(=O)c1ccc(Cl)cc1[N+](=O)[O-]`, for which the GI50 with DLD-1 was 15.6 µM (inactive); with HOP-18, 16.7 µM (inactive); in the test with KM-20L2 it was 16.7 µM (inactive); in the test with SNB-78 it was 16.1 µM (inactive); in the test on M19-MEL, 15 µM (inactive); in the test with LXFL 529 it was 14.1 µM (inactive). The GI50 with DMS-273 was 14.2 µM (inactive).
As for `O=C(CO)CC(=O)C(=O)Nc1ccccc1`, the GI50 with DLD-1, in the test with HOP-18, with KM-20L2, in the test with SNB-78, with M19-MEL and in the test on LXFL 529 was > 100 µM (inactive) throughout. Moreover, the GI50 with RXF 631 is 46 µM (inactive); with DMS-273 it was > 100 µM (inactive).
`CCCCCCCCCCCCCCCC(=O)OCC1OC(n2cc(F)c(=O)[nH]c2=O)C(NC(=O)OCc2ccccc2)C(O)C1O` (configuration not stated): the GI50 in the test on HOP-18 is 16.8 µM (inactive); in the test with KM-20L2, 22.3 µM (inactive); with XF498, 16.3 µM (inactive); in the test with SNB-78 it was 20.6 µM (inactive); with M19-MEL, 20.3 µM (inactive); in the test on LXFL 529 it was 16.7 µM (inactive). Also, the GI50 with RXF 631 is 18.3 µM (inactive); in the test with DMS-273, 16.8 µM (inactive).
As to `C=C1C2C[C@@H]3OC4CC5O[C@]6(CC5OC4C(C)C3OC(=O)CC3CC[C@@H]4OC5C7OC8C[C@](CCC9CC(=C)[C@H](CCC(C[C@H]1C)O2)O9)(OC7C4O3)O[C@@H]85)C[C@@H]1O[C@@]2(CC(C)[C@@H]3OC(CC(=O)CCO)C(O)C[C@@H]3O2)CC(C)[C@@H]1O6` (some centres not stated), the GI50 in the test with DLD-1 is < 0.001 µM (active); in the test with KM-20L2 it was < 0.001 µM (active); in the test on XF498 it was < 0.001 µM (active); in the test with SNB-78 it was 0.00157 µM (active); in the test on LXFL 529, < 0.001 µM (active); with DMS-273, < 0.001 µM (active).
As to `COc1ccc(/C=C/CO)cc1OC`, the GI50 in the test with KM-20L2, in the test with SNB-78, with M19-MEL, in the test on LXFL 529 and in the test on DMS-273 was > 100 µM (inactive) in each case.
In the case of `C=CCCC(O)c1cc(C)c(O)c(C)c1` (configuration not stated), the GI50 in the test with HOP-18, in the test on KM-20L2, with SNB-78, in the test with M19-MEL and in the test on LXFL 529 was > 100 µM (inactive) throughout.
In the case of `NCCOCCOCC(=O)O`, the GI50 in the test with KM-20L2, in the test on SNB-78, in the test with M19-MEL, with LXFL 529 and in the test with DMS-273 was > 100 µM (inactive) each time.
`CSc1nc(C)cc(=O)n1C1OC(COC(C)=O)C(OC(C)=O)C(OC(C)=O)C1OC(C)=O` (configuration not stated): the GI50 in the test on DLD-1, with KM-20L2, in the test with XF498, with M19-MEL, in the test with LXFL 529 and in the test on DMS-273 was > 100 µM (inactive) each time.
For `O=C1CCC(O)=C1O`, the GI50 in the test with DLD-1, in the test with HOP-18, in the test on KM-20L2, with XF498, in the test on M19-MEL and with LXFL 529 was > 100 µM (inactive) each time. The GI50 in the test on RXF 631 and in the test on DMS-273 was > 100 µM (inactive) each time.
`O=C(CCC(=O)Nc1ccc(Cl)c(Cl)c1)CC(=O)c1ccc(F)cc1`: the GI50 in the test on DLD-1, with HOP-18, in the test on KM-20L2, in the test with SNB-78, with M19-MEL and with LXFL 529 was > 100 µM (inactive) in each case. Besides, the GI50 with RXF 631 and in the test on DMS-273 was > 100 µM (inactive) in each case.
Regarding `COc1cc(/C=C/C(=N\NC(=O)c2ccccc2)c2sc(Nc3ccc(Cl)c(Cl)c3)nc2C)ccc1O`, the GI50 is 28.7 µM (inactive) with DLD-1; 24.1 µM (inactive) in the test on HOP-18; 33.4 µM (inactive) with KM-20L2; 32.9 µM (inactive) with XF498; 29.3 µM (inactive) in the test with SNB-78; 28.2 µM (inactive) with M19-MEL. Also, the values for the GI50 in the test on LXFL 529 and in the test on RXF 631 were 31.6 µM (inactive) and 20.6 µM (inactive), respectively.
Turning to `Cc1n(-c2ccccc2)c2c([n+]1Cc1ccc([N+](=O)[O-])cc1)C(=O)c1ccccc1C2=O`, the GI50 was 5.43 µM (inactive) in the test with DLD-1; 7.19 µM (inactive) in the test on HOP-18; 3.23 µM (inactive) with KM-20L2; 2.88 µM (inactive) with SNB-78; 1.16 µM (inactive) with M19-MEL; 1.42 µM (inactive) with LXFL 529. For the same compound, in the test on DMS-273, the GI50 is 1.92 µM (inactive).
In the case of `O=c1/c(=C/c2ccc3c(c2)OCO3)sc2nnc(-c3ccco3)n12`, the GI50 in the test with DLD-1, with HOP-18, with KM-20L2, in the test on XF498, in the test on SNB-78 and in the test with M19-MEL was > 100 µM (inactive) throughout. The GI50 with LXFL 529 and with DMS-273 was > 100 µM (inactive) throughout.
Take `COc1cc2c(cc1O)CC13CCC(=O)N1CCc1cc(OC)c(O)c-2c13` (configuration not stated): the GI50 in the test on DLD-1, with HOP-18, in the test on KM-20L2, in the test with SNB-78, in the test with M19-MEL and with LXFL 529 was > 68.1 µM (inactive) throughout. Besides, the GI50 in the test with RXF 631 was 39.9 µM (inactive).
Regarding `C[C@]12CC=CC(=O)[C@@]1(C)CCC(=O)C2`, the GI50 in the test on DLD-1 was > 100 µM (inactive); in the test on XF498, 75.7 µM (inactive); in the test with SNB-78, > 100 µM (inactive); in the test with M19-MEL it was > 100 µM (inactive); in the test with LXFL 529, > 100 µM (inactive); with RXF 631 it was > 100 µM (inactive). Further, the GI50 in the test with DMS-273 is > 100 µM (inactive).

In general, GI50 refers to the concentration giving 50% growth inhibition.
